Assay [1] concerns TNF. In words: Endotoxin shock in D-gal-sensitized mice (LPS-GAL model), TNF levels by ELISA and survival. In kind it is in vivo. The procedure:
The protocol used to test the compound of the method of the subject invention was essentially as has been described in Galanos et al., Proc. Nat'l Acad. Sci USA, 76:5939-43 (1979) whose disclosure is herein incorporated by reference. Briefly, D-gal ([…]) sensitizes various strains of mice to the lethal effects of endotoxin. The administration of D-gal (300-500mg/kg) intra-venously (i.v.) sensitizes the mice to doses of Lipopolysaccharide(LPS ) as low as 0.1 mg. Briefly, male C57BL/6 mice, obtained from Charles River Laboratories (Stone Ridge, New York, USA) of 6-12 weeks of age were injected i.v. with 0.1 mg of LPS from Salmonella typhosa (Difco Laboratories, Detroit, Michigan, USA) admixed with D(+)-gal (Sigma; 500 mg/kg) in 0.20-0.25 ml pyrogen-free saline. Compounds to be tested were administered at various times prior to or following the iv. injection of LPS/D-gal. In this model, the control animals usually die 5-6 hr. following the injection of LPS, although on occasion deaths are seen between 24 and 48 hr.
Plasma levels of TNF were measured using a modification of the basic sandwich ELISA method described in Winston et al., Current Protocols in Molecular Biology, Pg. 11.2.1, Ausubel et al., Ed. (1987) John Wiley and Sons, New York, USA. The Elisa employed a hampster monoclonal anti-mouse TNF (Genzyme, Boston, MA, USA) as the capture antibody and a polyclonal rabbit anti-murine TNF (Genzyme, Boston, MA, USA) as the detecting antibody. TNF levels in rat samples were calculated from a standard curve genereated with recombinant murine TNF (Genzyme, Boston, MA, USA). TNF levels determined by ELISA correlated with levels detected by the L929 bioassay of Ruff et. al., J. Immunol. 125:1671-1677 (1980), with 1 Unit of activity in the bioassay corresponding to 70 picograms (pg) of TNF in the ELISA. The ELISA detected levels of TNF down to 25 pg/ml.
(An ELISA detects its analyte on a solid surface through an enzyme-linked reagent.)

Assay [2] deals with TNF. In words: Endotoxin shock in P. acnes-sensitized mice (P. acnes/LPS model), TNF levels by ELISA. The class given is in vivo. The note with it: P acnes/LPS treated mice, increased oral dosage, Figure 1. How it is done: (§1) This model is a modification of the previously described protocol for the in vivo induction of TNF as described in Haranaka et al., Cancer Immunol Immunother, 18:87-90, (1984). Treatment with Proprionibacterium Acnes (P. acnes) (1mg/animal i.p.) renders mice susceptible to the lethal effects of LPS injected 10 days later.
(§2) P. acnes was purchased from Burroughs Wellcome (Triangle Park, North Carolina, USA), and […]of the heat-killed bacteria was administered in 0.5 ml pyrogen-free saline by intraperitoneal (i.p.) injection to male C57BL/6 mice, obtained from Charles River Laboratories (Stone Ridge, New York, USA) of 6-12 weeks of age. Ten days later, the mice were injected iv. with 1 mg LPS in 0.25 ml saline. Compounds to be tested were administered at various times prior to or following the injection of LPS. The survival of animals was monitored for 1 week.
Plasma levels of TNF were measured using a modification of the basic sandwich ELISA method described in Winston et al., Current Protocols in Molecular Biology, Pg. 11.2.1, Ausubel et al., Ed. (1987) John Wiley and Sons, New York, USA. […] TNF levels in rat samples were calculated from a standard curve genereated with recombinant murine TNF (Genzyme, Boston, MA, USA). TNF levels determined by ELISA correlated with levels detected by the L929 bioassay of Ruff et. al., J. Immunol. […] The ELISA detected levels of TNF down to 25 pg/ml.

For assay [3], the system named is TNF. As to the kind of experiment: In vivo endotoxin shock models (P. acnes model and/or LPS-GAL model, not specified which). The arrangement: species or system mice. The note with it: one or both of the in vivo assays (P. acnes / LPS-GAL). The procedure:
Two models of endotoxin shock have been utilized to determine in vivo TNF activity and are described below. The actual protocoll used in the models is described in Utility Model Examples A and B set out below, i.e. P. Acnes model and LPS-GAL model.
Briefly, D-gal ([…]) sensitizes various strains of mice to the lethal effects of endotoxin. The administration of D-gal (300-500mg/kg) intra-venously (i.v.) sensitizes the mice to doses of Lipopolysaccharide(LPS ) as low as 0.1 mg. Briefly, male C57BL/6 mice, obtained from Charles River Laboratories (Stone Ridge, New York, USA) of 6-12 weeks of age were injected i.v. with 0.1 mg of LPS from Salmonella typhosa (Difco Laboratories, Detroit, Michigan, USA) admixed with D(+)-gal (Sigma; 500 mg/kg) in 0.20-0.25 ml pyrogen-free saline. Compounds to be tested were administered at various times prior to or following the iv. injection of LPS/D-gal.
as §1, §2
Plasma levels of TNF were measured using a modification of the basic sandwich ELISA method described in Winston et al., Current Protocols in Molecular Biology, Pg. 11.2.1, Ausubel et al., Ed. (1987) John Wiley and Sons, New York, USA. The Elisa employed a hampster monoclonal anti-mouse TNF (Genzyme, Boston, MA, USA) as the capture antibody and a polyclonal rabbit anti-murine TNF (Genzyme, Boston, MA, USA) as the detecting antibody. TNF levels in rat samples were calculated from a standard curve genereated with recombinant murine TNF (Genzyme, Boston, MA, USA).

SMILES strings stand for the structures. “Also recorded” adds a separate entry of the source.

`C[S+]([O-])c1ccc(-c2nc3n(c2-c2ccncc2)CCC3)cc1` (stereo not shown) [Compound 2, 2-(4-Methylsulfoxyphenyl)3-(4-pyridyl)-6,7-dihydro[5H]-pyrrolo-[1,2-a]imidazole]: the “reduction of serum TNF levels” value with TNF [1] (LPS-GAL Model, 100 mg/kg, Figure 4) is on record as “reduction of serum TNF levels”. Also, the survival rate in the assay on TNF [1] (LPS-GAL model, animals with endotoxic shock, Figure 5, control group 30%) is listed as 100%. The “serum TNF levels” value in the assay on TNF [2] is “reduction in serum TNF levels”. Moreover, in the assay with TNF [3], the “in vivo TNF levels” value is listed as “in vivo activity; also recorded: reduce the in vivo level of tumor necrosis factor (TNF)”.

For the origin of these results see patent EP0403251A2, “Monokine activity interference” (SMITHKLINE BEECHAM CORPORATION, priority 1989, dated 1990).
